# Source: ChEMBL document CHEMBL4808169, “Discovery of Potent and Fast-Acting Antimalarial Bis-1,2,4-triazines” (J Med Chem, 2021)
# Activity calls are given as the source filed them. No cut-off for these calls is given here.
# What was measured:
# [1] = system: Plasmodium falciparum; assay: microbe, parasite or virus in culture; conditions: 3D7, 72 h
# Description: Antimalarial activity against Plasmodium falciparum 3D7 infected in human red blood cells after 72 hrs by DAPI-staining based assay
# [2] = system: Plasmodium falciparum; assay: Bactericidal activity against Plasmodium falciparum 3D7A at 10 times IC50; assay type: functional, organism-based
# [3] = Kinetic solubility of compound at pH 2 by nephelometry; assay type: physicochemical; conditions: buffer, read-out: Kinetic_solubility
# [4] = Kinetic solubility of compound at pH 6.5 by nephelometry; assay type: physicochemical; conditions: buffer, read-out: Kinetic_solubility
# [5] = Intrinsic clearance in human liver microsomes assessed per mg of protein in presence of NADPH by UPLC-MS analysis; assay type: ADME, Microsome; conditions: read-out: CLH
# [6] = Intrinsic clearance in mouse liver microsomes in presence of NADPH by UPLC-MS analysis; assay type: ADME, Microsome
# [7] = Half life in human liver microsomes in presence of NADPH by UPLC-MS analysis; assay type: ADME, Microsome
# [8] = Half life in mouse liver microsomes in presence of NADPH by UPLC-MS analysis; assay type: ADME, Microsome
# [9] = system: Plasmodium falciparum; assay: Antimalarial activity against Plasmodium falciparum 3D7 infected in human red blood cells at 40 uM after 72 hrs by DAPI-staining based assay relative to control; assay type: functional
# [10] = system: Plasmodium berghei; assay: Antiplasmodial activity against Plasmodium berghei ANKA infected in po dosed Swiss mouse administered at 2 hrs post infection and measured on day 4 by Peter's 4-day test; assay type: functional
compound,measurement,setting,value
c1nnc(OC2CC2)nc1-c1cnnc(OC2CC2)n1,IC50,[1],890 nM
C#CCSc1nncc(-c2cnnc(SC)n2)n1,IC50,[1],32 nM
CCN(CC)CCCC(C)Nc1ccnc2cc(Cl)ccc12 (configuration not stated) [CHLOROQUINE],Activity,[2],Active
CCc1nncc(-c2cnnc(SCCN(C)C)n2)n1,solubility kinetic,[3],50 µg/mL
same,solubility kinetic,[4],25 µg/mL
same,microsomal CLint,[5],9 µL/min/mg
same,microsomal CLint,[6],118 µL/min/mg
same,half-life,[7],199 min
same,half-life,[8],15 min
same,IC50,[1],120 nM
CCCOc1nncc(-c2cnnc(SCCN(C)C)n2)n1,IC50,[1],11 nM
CCCCc1nncc(-c2cnnc(OCCN(C)C)n2)n1,solubility kinetic,[3],25 µg/mL
same,solubility kinetic,[4],25 µg/mL
same,microsomal CLint,[5],25 µL/min/mg
same,microsomal CLint,[6],109 µL/min/mg
same,half-life,[7],69 min
same,half-life,[8],16 min
same,IC50,[1],30 nM
FC(F)(F)CCOc1nncc(-c2cnnc(OCCC(F)(F)F)n2)n1,IC50,[1],93 nM
C[Si](C)(C)CCOc1nncc(-c2cnnc(OCC[Si](C)(C)C)n2)n1,IC50,[1],720 nM
CSc1nncc(-c2cnnc(SCCN(C)C)n2)n1,solubility kinetic,[3],6.3 µg/mL
same,solubility kinetic,[4],6.3 µg/mL
C#CCOc1nncc(-c2cnnc(SC)n2)n1,IC50,[1],130 nM
COCCOc1nncc(-c2cnnc(OCCOC)n2)n1,Activity,[9],100%
CCCCc1nncc(-c2cnnc(CCCC)n2)n1,IC50,[1],340 nM
CCCCc1nncc(-c2cnnc(SCCN(C)C)n2)n1,solubility kinetic,[3],50 µg/mL
same,solubility kinetic,[4],25 µg/mL
same,microsomal CLint,[5],56 µL/min/mg
same,microsomal CLint,[6],330 µL/min/mg
same,half-life,[7],31 min
same,half-life,[8],5 min
same,IC50,[1],9 nM
CSc1nncc(-c2cnnc(OC(C)CN(C)C)n2)n1 (configuration not stated),IC50,[1],32 nM
C[C@H]1[C@H](OC(=O)CCC(=O)O)O[C@@H]2O[C@@]3(C)CC[C@H]4[C@H](C)CC[C@@H]1[C@@]24OO3 [ARTESUNATE],Activity,[2],Active
same,ED50,[10],1.37 mg/kg/day
CC(C)Sc1nncc(-c2cnnc(SCCN(C)C)n2)n1,IC50,[1],210 nM
[N-]=[N+]=NCCCSc1nncc(-c2cnnc(SCCCN=[N+]=[N-])n2)n1,IC50,[1],31 nM
COCCSc1nncc(-c2cnnc(SCCN(C)C)n2)n1,IC50,[1],260 nM
FC(F)(F)COc1nncc(-c2cnnc(OCC(F)(F)F)n2)n1,IC50,[1],420 nM
CN(C)CCOc1nncc(-c2cnnc(OCCN(C)C)n2)n1,IC50,[1],8600 nM
CC#CCOc1nncc(-c2cnnc(OCC#CC)n2)n1,IC50,[1],1000 nM
CSc1nncc(-c2cnnc(SCCCN=[N+]=[N-])n2)n1,IC50,[1],4.4 nM
CCCOc1nncc(-c2cnnc(OCCC)n2)n1,IC50,[1],110 nM
CC(C)Oc1nncc(-c2cnnc(OCCN(C)C)n2)n1,IC50,[1],440 nM
CC(C)Oc1nncc(-c2cnnc(SCCN(C)C)n2)n1,IC50,[1],81 nM
COc1nncc(-c2cnnc(SCCN(C)C)n2)n1,IC50,[1],850 nM
CN(C)CCOc1nncc(-c2cnnc(OCCC(F)(F)F)n2)n1,solubility kinetic,[3],50 µg/mL
same,solubility kinetic,[4],50 µg/mL
same,microsomal CLint,[5],7 µL/min/mg
same,microsomal CLint,[6],33 µL/min/mg
same,half-life,[7],232 min
same,half-life,[8],53 min
same,IC50,[1],54 nM
CC(CN(C)C)Oc1nncc(-c2cnnc(OC(C)CN(C)C)n2)n1 (configuration not stated),IC50,[1],12000 nM
CC(C)Sc1nncc(-c2cnnc(OCCN(C)C)n2)n1,IC50,[1],12 nM
CC(C)Oc1nncc(-c2cnnc(OC(C)C)n2)n1,IC50,[1],2000 nM
Cc1ncsc1CCOc1nncc(-c2cnnc(OCCc3scnc3C)n2)n1,IC50,[1],500 nM
